Experiments:
[1] = molecular target: human ERK-2 (Mitogen Activated Kinase 1) (Homo sapiens (Human), UniProt P28482); assay: ERK-2 Enzymatic Assay; format: biochemical; conditions: 5 nM ERK-2, 25 μM ATP, Omnia peptide S/T17; read-out: ERK Inhibition IC50
Method: Compounds were tested in an enzymatic assay using human ERK-2 (Mitogen Activated Kinase 1), recombinantly expressed as an n-terminal 6-His fusion protein in E. coli and corresponding to aa 8-360. The substrate used was the fluorescent Omnia peptide S/T17 (Invitrogen of Carlsbad, Calif.; Cat. KNZ1171C). Test compounds were diluted in DMSO in 3-fold serial dilutions at 100× final concentrations. […] The assay was run at ambient temperature in a white 384-well polypropylene plate (Nunc, Inc of Naperville, Ill.; Cat. 267462) collecting data every 50 seconds for approximately 30 minutes on an Envision plate reader (PerkinElmer, Inc. of Waltham, Mass.); Excitation 340 nm/Emission 495 nm. The data collected from each well was fit to a straight line and the resulting rates were used to calculate percent of control. Percent of control was plotted against compound concentration and IC50 values were determined using a four-parameter fit.

[2] = test system: PMA-stimulated P90RSK(Ser380) phosphorylation in HepG2 cells; assay: Cellular P90RSK(Ser380) Phosphorylation Assay; format: cell-based; conditions: Homo sapiens, 1.5 h compound incubation, PMA stimulation, pP90RSK(Ser380) normalized to GAPDH, read-out: Cell Assay IC50
Method: Inhibition of PMA-stimulated P90RSK(Ser380) phosphorylation was determined by the following in vitro cellular mechanistic assay, which comprises incubating cells with a compound for 1.5 hours and quantifying fluorescent pP90RSK(Ser380) signal on fixed cells and normalizing to GAPDH signal.
Materials and Methods: HepG2 cells were obtained from ATCC and grown in DMEM supplemented with 10% fetal bovine serum. Cells were plated in 96-well plates at 35,000 cells/well and allowed to attach overnight at 37° C./5% CO2. Diluted compounds were then added at a final concentration of 0.5% DMSO. After 1.5 hour compound incubation, cells were stimulated with the addition of PMA (phorbol 12-myristate 13-acetate) at a final concentration of 100 ng/mL; the PMA stimulation was a 30-minute incubation at 37° C./5% CO2. After the 30-minute PMA stimulation, cells were washed with PBS and fixed in 3.7% formaldehyde in PBS at room temperature for 15-20 minutes. This was followed by another wash in PBS and then permeabilization in 100% MeOH at room temperature for 10-15 minutes. Following the permeabilization incubation, cells were washed in PBS/0.05% Tween-20, followed by a block in Odyssey blocking buffer (LI-COR Biosciences) for at least 1 hour. Antibodies to phosphorylated P90RSK(Ser380) (Cell Signaling #9335, rabbit monoclonal) and GAPDH (Fitzgerald 10R-G109a, mouse monoclonal) were added to the cells and incubated overnight at 4° C. pP90RSK(Ser380) antibody was used at a 1:250 dilution; GAPDH was used at a 1:10,000 dilution. After washing with PBS/0.05% Tween-20, the cells were incubated with fluorescently-labeled secondary antibodies (Anti-rabbit-Alexa Flour680, Invitrogen Cat#A21109; Anti-mouse-IRDye800CW, Rockland Inc. Cat#610-131-121) for 1 hour. Both secondary antibodies were used at a 1:1000 dilution. Cells were then washed and analyzed for fluorescence at both wavelengths using the Odyssey Infrared Imaging System (LI-COR Biosciences). Phosphorylated P90RSK(Ser380) signal was normalized to GAPDH signal. Representative date is in TABLE III (infra).

human ERK-2 (Mitogen Activated Kinase 1), sequence (P28482 8-360): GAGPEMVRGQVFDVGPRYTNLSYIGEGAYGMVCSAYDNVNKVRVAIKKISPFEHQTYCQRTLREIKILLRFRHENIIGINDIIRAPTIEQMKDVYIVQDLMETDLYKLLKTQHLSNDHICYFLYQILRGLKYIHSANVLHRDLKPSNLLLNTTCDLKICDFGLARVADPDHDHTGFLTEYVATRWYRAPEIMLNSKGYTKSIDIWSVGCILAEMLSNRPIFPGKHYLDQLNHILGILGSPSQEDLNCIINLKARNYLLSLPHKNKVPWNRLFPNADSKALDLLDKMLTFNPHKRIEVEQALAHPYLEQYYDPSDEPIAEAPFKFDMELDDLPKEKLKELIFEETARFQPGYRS

Structure (SMILES) | IC50 [1] | IC50 [2]
CC(C)Nc1ncc2c(n1)CN(C(=O)CCc1ccc(Cl)cc1Cl)CC2 [II-24, 3-(2,4-Dichloro-phenyl)-1-(2-isopropylamino-5,8-dihydro-6H-pyrido[3,4-d]pyrimidin-7-yl)-propan-1-one] | 0.244 µM | 50 µM
CNC(=O)C(NC(=O)N1CCc2cnc(NC(C)C)nc2C1)c1ccc(F)c(Cl)c1 (centres unmarked) [II-26, 2-Isopropylamino-5,8-dihydro-6H-pyrido[3,4-d]pyrimidine-7-carboxylic acid [(3-chloro-4-fluoro-phenyl)-methylcarbamoyl-methyl]-amide] | 0.0866 µM | 12.2 µM
Cc1noc(C)c1Nc1ncc2c(n1)CN(C(=O)N[C@H](CO)c1ccc(F)c(Cl)c1)CC2 [II-34, 2-(3,5-Dimethyl-isoxazol-4-ylamino)-5,8-dihydro-6H-pyrido[3,4-d]pyrimidine-7-carboxylic acid [(S)-1-(3-chloro-4-fluoro-phenyl)-2-hydroxy-ethyl]-amide] | 0.0259 µM | 13.2 µM
CNC[C@@H](NC(=O)N1CCc2cnc(Nc3ccc(F)cc3)nc2C1)c1ccc(F)c(Cl)c1 [II-35, 2-(4-Fluoro-phenylamino)-5,8-dihydro-6H-pyrido[3,4-d]pyrimidine-7-carboxylic acid [(S)-1-(3-chloro-4-fluoro-phenyl)-2-methylamino-ethyl]-amide] | 0.0215 µM | 0.16 µM
CC(C)Nc1ncc2c(n1)CN(C(=O)N[C@@H](c1ccc(F)c(Cl)c1)[C@H](C)O)CC2 [II-40, 2-Isopropylamino-5,8-dihydro-6H-pyrido[3,4-d]pyrimidine-7-carboxylic acid [(1S,2S)-1-(3-chloro-4-fluoro-phenyl)-2-hydroxy-propyl]-amide] | 0.00323 µM | 0.0873 µM
COCCNC[C@@H](NC(=O)N1CCc2cnc(NC(C)C)nc2C1)c1ccc(F)c(Cl)c1 [II-41, 2-Isopropylamino-5,8-dihydro-6H-pyrido[3,4-d]pyrimidine-7-carboxylic acid [(S)-1-(3-chloro-4-fluoro-phenyl)-2-(2-methoxy-ethylamino)-ethyl]-amide] | 0.0154 µM | 1.9 µM
CC(C)Nc1ncc2c(n1)CN(C(=O)N[C@H](CNS(C)(=O)=O)c1ccc(F)c(Cl)c1)CC2 [II-43, 2-Isopropylamino-5,8-dihydro-6H-pyrido[3,4-d]pyrimidine-7-carboxylic acid [(S)-1-(3-chloro-4-fluoro-phenyl)-2-methanesulfonylamino-ethyl]-amide] | 0.0071 µM | 0.917 µM
CC(C)Nc1ncc2c(n1)CN(C(=O)N[C@H](CNc1ncccn1)c1ccc(F)c(Cl)c1)CC2 [II-50, 2-Isopropylamino-5,8-dihydro-6H-pyrido[3,4-d]pyrimidine-7-carboxylic acid [(S)-1-(3-chloro-4-fluoro-phenyl)-2-(pyrimidin-2-ylamino)-ethyl]-amide] | 0.00443 µM | 1 µM
CC(C)Nc1ncc2c(n1)CN(C(=O)N[C@H](CNc1ccncn1)c1ccc(F)c(Cl)c1)CC2 [II-51, 2-Isopropylamino-5,8-dihydro-6H-pyrido[3,4-d]pyrimidine-7-carboxylic acid [(S)-1-(3-chloro-4-fluoro-phenyl)-2-(pyrimidin-4-ylamino)-ethyl]-amide] | 0.0024 µM | 0.435 µM
O=C(N[C@H](CO)c1ccc(F)c(Cl)c1)N1CCc2cnc(Nc3ccc(Cl)c(F)c3)nc2C1 [II-61, 2-(4-Chloro-3-fluoro-phenylamino)-5,8-dihydro-6H-pyrido[3,4-d]pyrimidine-7-carboxylic acid [(S)-1-(3-chloro-4-fluoro-phenyl)-2-hydroxy-ethyl]-amide] | 0.21 µM | 21.3 µM
O=C(NC1(c2ccc(Cl)cc2)CCNC1)N1CCc2cnc(Nc3ccc(F)cc3)nc2C1 (centres unmarked) [II-64, 2-(4-Fluoro-phenylamino)-5,8-dihydro-6H-pyrido[3,4-d]pyrimidine-7-carboxylic acid [3-(4-chloro-phenyl)-pyrrolidin-3-yl]-amide] | 0.0383 µM | 3.1 µM
CC(C)Nc1ncc2c(n1)CN(C(=O)N[C@H](CCO)c1ccc(C(F)(F)F)c(F)c1)CC2 [II-72, 2-Isopropylamino-5,8-dihydro-6H-pyrido[3,4-d]pyrimidine-7-carboxylic acid [(R)-1-(3-fluoro-4-trifluoromethyl-phenyl)-3-hydroxy-propyl]-amide] | 0.0072 µM | 0.208 µM
COCCOC[C@@H](NC(=O)N1CCc2cnc(N[C@@H](C)CO)nc2C1)c1ccc(F)c(Cl)c1 [II-78, 2-((S)-2-Hydroxy-1-methyl-ethylamino)-5,8-dihydro-6H-pyrido[3,4-d]pyrimidine-7-carboxylic acid [(S)-1-(3-chloro-4-fluoro-phenyl)-2-(2-methoxy-ethoxy)-ethyl]-amide] | 0.0177 µM | 1.4 µM

The next lines start with results.

IC50 [1] | Structure (SMILES) | IC50 [2]
0.0047 µM | C[C@@H](NC(=O)N1CCc2cnc(N[C@H](CO)Cc3ccccc3)nc2C1)c1ccc(Cl)c(Cl)c1 [II-111, 2-((S)-1-Hydroxymethyl-2-phenyl-ethylamino)-5,8-dihydro-6H-pyrido[3,4-d]pyrimidine-7-carboxylic acid [(R)-1-(3,4-dichloro-phenyl)-ethyl]-amide] | 0.693 µM
0.00233 µM | C[C@@H](NC(=O)N1CCc2cnc(N[C@H]3CCC(F)(F)C3)nc2C1)c1ccc(Cl)c(Cl)c1 [II-116, 2-((S)-3,3-Difluoro-cyclopentylamino)-5,8-dihydro-6H-pyrido[3,4-d]pyrimidine-7-carboxylic acid [(R)-1-(3,4-dichloro-phenyl)-ethyl]-amide] | 0.13 µM
0.0069 µM | Cc1nccc(Nc2ncc3c(n2)CN(C(=O)N[C@H](C)c2ccc(Cl)c(Cl)c2)CC3)n1 [II-126, 2-(2-Methyl-pyrimidin-4-ylamino)-5,8-dihydro-6H-pyrido[3,4-d]pyrimidine-7-carboxylic acid [(R)-1-(3,4-dichloro-phenyl)-ethyl]-amide] | 0.141 µM
0.0022 µM | C[C@H](Cc1ccc(Cl)cc1)NC(=O)N1CCc2cnc(N[C@@H](C)CO)nc2C1 [II-136, 2-(2-Hydroxy-1-methyl-ethylamino)-5,8-dihydro-6H-pyrido[3,4-d]pyrimidine-7-carboxylic acid [2-(4-chloro-phenyl)-1-methyl-ethyl]-amide] | 0.464 µM
0.0528 µM | C[C@@H](CO)Nc1ncc2c(n1)CN(C(=O)NCc1nc3ccccc3o1)CC2 [II-151, 2-((S)-2-Hydroxy-1-methyl-ethylamino)-5,8-dihydro-6H-pyrido[3,4-d]pyrimidine-7-carboxylic acid (benzooxazol-2-ylmethyl)-amide] | 10 µM
0.0066 µM | CC(C)Nc1ncc2c(n1)CN(C(=O)NCc1cc3ccccc3[nH]1)CC2 [II-195, 2-Isopropylamino-5,8-dihydro-6H-pyrido[3,4-d]pyrimidine-7-carboxylic acid (1H-indol-2-ylmethyl)-amide] | 0.281 µM
0.411 µM | C[C@@H](CO)Nc1ncc2c(n1)CN(C(=O)NCc1cccc3cc[nH]c13)CC2 [II-200, 2-((S)-2-Hydroxy-1-methyl-ethylamino)-5,8-dihydro-6H-pyrido[3,4-d]pyrimidine-7-carboxylic acid (1H-indol-7-ylmethyl)-amide] | 1 µM
0.0057 µM | O=C(NCc1ccc2cc[nH]c2c1)N1CCc2cnc(NC3CCOCC3)nc2C1 [II-223, 2-(Tetrahydro-pyran-4-ylamino)-5,8-dihydro-6H-pyrido[3,4-d]pyrimidine-7-carboxylic acid (1H-indol-6-ylmethyl)-amide] | 0.186 µM
0.0201 µM | C[C@@H](NC(=O)N1CCc2cnc(NC3CC(=O)N(C)C3)nc2C1)c1ccc(Cl)c(F)c1 (some centres unmarked) [II-267, 2-(1-Methyl-5-oxo-pyrrolidin-3-ylamino)-5,8-dihydro-6H-pyrido[3,4-d]pyrimidine-7-carboxylic acid [1-(4-chloro-3-fluoro-phenyl)-ethyl]-amide] | 28 µM

Reference: US9133187B2, “Serine/threonine kinase inhibitors” (ARRAY BIOPHARMA INC., priority 2011, dated 2015)
